Calls of active or inactive are those of the source. The calls are words filed in the database; no cut-off is given here.

Assay [1] concerns Spodoptera litura. Kind of assay: Acute insecticidal activity against fifth-instar Spodoptera litura larvae assessed as mortality at 200 ng applied topically measured after 1 hr. The class given is functional, organism-based.
Assay [2] deals with Spodoptera litura. In words: Acute insecticidal activity against fifth-instar Spodoptera litura larvae assessed as decrease in vigor at 50 to 400 ng applied topically. In kind it is functional, organism-based.
The subject of assay [3] is Spodoptera litura. Kind of assay: Insecticidal activity against fifth-instar Spodoptera litura larvae assessed as inhibition of emergence as adult at 1.56 to 25 ng applied topically. In kind it is functional, organism-based.
For assay [4], the system named is Spodoptera litura. In words: Acute insecticidal activity against fifth-instar Spodoptera litura larvae assessed as mortality at 100 ng applied topically measured after 6 hr. The class given is functional.
Assay [5] concerns Spodoptera litura. In words: Acute insecticidal activity against fifth-instar Spodoptera litura larvae assessed as mortality at 200 ng applied topically measured after 3 hr. The class given is functional.
Assay [6] deals with Spodoptera litura. In words: Acute insecticidal activity against fifth-instar Spodoptera litura larvae assessed as mortality at 50 ng applied topically measured within 3 days. In kind it is functional.
Assay [7] deals with Spodoptera litura. Kind of assay: Insecticidal activity against fifth-instar Spodoptera litura larvae assessed as mortality compound applied topically measured after 3 days. The class given is functional.
The subject of assay [8] is Spodoptera litura. In words: Insecticidal activity against fifth-instar Spodoptera litura larvae assessed as mortality compound applied topically measured after 2 days. The class given is functional.
The subject of assay [9] is Spodoptera litura. Kind of assay: Acute insecticidal activity against fifth-instar Spodoptera litura larvae assessed as mortality at 400 ng applied topically measured after 1 hr. The class given is functional, organism-based.
The test system of assay [10] is Spodoptera litura. Kind of assay: Insecticidal activity against fifth-instar Spodoptera litura larvae assessed as inhibition of ecdysis at 1.56 to 25 ng applied topically measured after 5 days. The class given is functional, organism-based.
Assay [11] deals with Spodoptera litura. Kind of assay: Insecticidal activity against fifth-instar Spodoptera litura larvae assessed as abnormal body shape at 1.56 to 25 ng applied topically. In kind it is functional, organism-based.
The test system of assay [12] is Spodoptera litura. In words: Insecticidal activity against fifth-instar Spodoptera litura larvae assessed as mortality at 25 ng applied topically measured after 5 days. In kind it is functional, organism-based.
In assay [13] the test system is Spodoptera litura. In words: Acute insecticidal activity against fifth-instar Spodoptera litura larvae assessed as flaccid paralysis at 50 to 400 ng applied topically. In kind it is functional, organism-based.
Assay [14] deals with Spodoptera litura. Kind of assay: Acute insecticidal activity against fifth-instar Spodoptera litura larvae assessed as decrease in body elasticity at 50 to 400 ng applied topically. In kind it is functional, organism-based.
Assay [15] concerns Spodoptera litura. Kind of assay: Insecticidal activity against fifth-instar Spodoptera litura larvae assessed as mortality compound applied topically measured after 1 day. In kind it is functional.
The subject of assay [16] is Spodoptera litura. In words: Insecticidal activity against fifth-instar Spodoptera litura larvae assessed as mortality at 1.56 to 25 ng applied topically measured after 5 days. In kind it is functional, organism-based.
For assay [17], the system named is Spodoptera litura. In words: Acute insecticidal activity against fifth-instar Spodoptera litura larvae assessed as mortality at 400 ng applied topically measured after 2 hr. The class given is functional.
For assay [18], the system named is Spodoptera litura. In words: Insecticidal activity against fifth-instar Spodoptera litura larvae at 1.56 to 25 ng applied topically measured up to 1 day. The class given is functional, organism-based.
Assay [19] concerns Spodoptera litura. In words: Acute insecticidal activity against fifth-instar Spodoptera litura larvae assessed as decrease in mobility at 50 to 400 ng applied topically. In kind it is functional, organism-based.
In assay [20] the test system is Spodoptera litura. Kind of assay: Insecticidal activity against fifth-instar Spodoptera litura larvae assessed as burn scar on the area where compound applied at 1.56 to 6.25 ng applied topically measured after 4 days. In kind it is functional, organism-based.
In assay [21] the test system is Spodoptera litura. Kind of assay: Acute insecticidal activity against fifth-instar Spodoptera litura larvae assessed as mortality at 50 ng applied topically measured after 6 hr. In kind it is functional, organism-based.

For the compound `FC(F)(F)c1ccc(OCCCOc2c(Cl)cc(OCC=C(Cl)Cl)cc2Cl)nc1` [PYRIDALYL], the outcome in assay [1], in [2], in [3], in assay [9], in assay [10] and in assay [12] was Active. Further, the outcome in [13], in [14], in [19] and in assay [20] was Active. Further, the mortality in assay [4] is on record as 100%; in assay [5] it was 100%; in assay [6], >50%; in assay [17], 100%. Also, the LD50 is reported as 24.4 ng in assay [7], 50.1 ng in assay [8] and 57.3 ng in assay [15]. Further, the inhibition entry in assay [11] and in [16] was “Active” throughout. Also, the result in assay [18] and in [21] was inactive.

These data come from ChEMBL document CHEMBL3046365, “Insecticidal Activity of Pyridalyl: Acute and Sub-Acute Symptoms in Spodoptera litura Larvae” (2004).
